This is an account of results in patent US20240279190A1, “COMPOUNDS FOR MODULATING PLATELET-TYPE 12-(S)-LIPOXYGENASE AND METHODS OF USE FOR SAME” (The Regents of The University of California, priority 2021, published 2024).

Experiment [1] concerns other LOX isozymes (h5-LOX, h15-LOX-1, h15-LOX-2). Description: Inhibitor selectivity against other LOX isozymes. Type of experiment: biochemical, human. The text has this: The wild type 12-LOX (wt-12-LOX) enzyme and its mutants were expressed as fusion proteins, with an N-terminal 6×His tag, and were affinity purified by nickel-iminodiacetic acid agarose using FPLC (Biorad). For inhibitor selectivity, human 5-LOX (h5-LOX, UniProt entry P09917), human reticulocyte 15-LOX-1 (h15-LOX-1, UniProt entry P16050) and human epithelial 15-LOX-2 (h15-LOX-2, UniProt entry 015296) were also isolated. The purity of all the proteins, except h5-LOX, was greater than 90% as determined by SDS-PAGE analysis. h5-LOX was an ammonium sulfate fraction due to the extensive loss of activity upon purification.
IC50 values of ML355 against 12-LOX and its mutants were determined in a similar manner as the steady state kinetic values. The percent inhibition was determined by comparing the enzyme rates of the control (DMSO solvent) and the inhibitor sample by following the formation of the conjugated diene product at 234 nm (ε=25,000 M^−1cm^−1). The reactions were initiated by adding 200 nM 15-LOX-2, 30 nM 12-LOX, 40 nM 15-LOX-1, or approximately 100-300 nM (total protein) of 5-LOX ammonium sulfate fraction to a cuvette with 2 mL reaction buffer, constantly stirred using a magnetic stir bar at room temperature (22° C.). […] The substrate concentration was quantitatively determined by allowing the enzymatic reaction to go to completion in the presence of soybean LOX-1. […]

The target of another experiment is T1, 12-LOX mutant F414L (Homo sapiens, UniProt P18054, F414L).
T1 construct: 6xHis (N); made in house; pFastBac1 shuttle vector
T1 sequence (P18054 1-663 F414L): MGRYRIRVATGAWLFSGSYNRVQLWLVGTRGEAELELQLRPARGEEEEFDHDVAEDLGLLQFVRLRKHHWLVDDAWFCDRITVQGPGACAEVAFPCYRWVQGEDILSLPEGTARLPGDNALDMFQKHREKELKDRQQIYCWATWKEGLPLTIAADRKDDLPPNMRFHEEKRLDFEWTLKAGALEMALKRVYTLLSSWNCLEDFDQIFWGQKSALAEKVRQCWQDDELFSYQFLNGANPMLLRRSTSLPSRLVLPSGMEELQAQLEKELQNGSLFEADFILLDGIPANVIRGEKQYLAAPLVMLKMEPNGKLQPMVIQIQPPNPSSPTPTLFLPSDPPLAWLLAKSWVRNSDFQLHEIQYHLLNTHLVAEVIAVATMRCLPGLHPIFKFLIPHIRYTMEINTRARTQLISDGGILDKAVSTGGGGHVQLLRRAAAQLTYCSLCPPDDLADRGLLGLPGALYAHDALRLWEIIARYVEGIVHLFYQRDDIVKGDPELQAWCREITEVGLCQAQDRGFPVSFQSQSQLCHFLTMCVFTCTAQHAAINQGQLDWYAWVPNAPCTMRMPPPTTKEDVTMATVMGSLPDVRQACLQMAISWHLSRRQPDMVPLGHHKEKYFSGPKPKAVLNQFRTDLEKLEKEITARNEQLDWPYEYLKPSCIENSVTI
Description: UV-Vis-based IC50 assay, F414L mutant. In kind it is biochemical. The text has this:
Based on the ML355 binding mode predicted by the modeling, all residues within 5 Å of any atom of ML355 were selected for experimental mutagenesis. The selected residues were replaced with amino acids with either bulkier or smaller side chains in order to determine what specific interactions play a role in inhibitor binding. […] The numbering refers to the UniProt accession number P18054 sequence, with the N-terminal methionine assigned as amino acid number one. The primers for all mutants were designed using the online QuikChange Primer Design tool (http://www.genomics.agilent.com/primerDesignProgram.jsp) from Agilent Technologies (CA, USA). The mutations were introduced by using the QuikChange® II XL site-directed mutagenesis kit from Agilent, following the instructions in the protocol provided. […]
The wild type 12-LOX (wt-12-LOX) enzyme and its mutants were expressed as fusion proteins, with an N-terminal 6×His tag, and were affinity purified by nickel-iminodiacetic acid agarose using FPLC (Biorad).
The percent inhibition was determined by comparing the enzyme rates of the control (DMSO solvent) and the inhibitor sample by following the formation of the conjugated diene product at 234 nm (ε=25,000 M^−1cm^−1). […] The substrate concentration was quantitatively determined by allowing the enzymatic reaction to go to completion in the presence of soybean LOX-1. […]

Broadly, the IC50 is the midpoint of a concentration-inhibition curve. Read a high IC50 as weaker potency. Consider `COc1cccc(CNc2ccc(S(=O)(=O)Nc3nc4c(ccc5ccccc54)s3)cc2)c1O` [Compound LOX-12-001, 4-((2-hydroxy-3-methoxybenzyl)amino)-N-(naphtho[1,2-d]thiazol-2-yl)benzenesulfonamide], for which the “selectivity against other LOX isozymes” value in experiment [1] is reported as “maintained”. This compound also came in with an IC50 on 12-LOX mutant F414L (F414L) of 0.18 ± 0.01 µM. The “fold increase in IC50 compared to wt12-LOX” value on 12-LOX mutant F414L (F414L vs wt12-LOX) is given as 3.6 fold.
